≈ marks a conversion by molar mass, not a printed value.
Assays:
carbonic anhydrase = assay: in vitro inhibition of carbonic anhydrase (enzymic activity), CO2-electrode potentiometric analysis; format: biochemical; conditions: samples at 10^-7, 3×10^-7, 6×10^-7 and 10^-6 molar; read-out: I50 (molar concentration that gives a 50% reduction of enzymic activity)
Text: For determining the in vitro activities, samples were employed at molar concentrations of 10^-7, 3×10^-7, 6×10^-7, and 10^-6, and the results given in Table 1 were obtained by CO2 -electrode potentiometric analysis.

[1] = solubility in buffer pH 7.6; format: physicochemical; conditions: aqueous buffer
[2] = test system: ocular pressure in rabbit; assay: decrease in ocular pressure in rabbit, transient ocular hypertension model (5% glucose infusion), topical instillation; format: in vivo; parameters: endoocular pressure, 10' OS / endoocular pressure, 20' OC / endoocular pressure, 40' OS: unit not given beside the values; conditions: for endoocular pressure, 10' OS / endoocular pressure, 20' OS / endoocular pressure, 40' OS: left eye (diluent-treated fellow eye, control); for endoocular pressure, 10' OS / endoocular pressure, 10' OD: 10 minutes; for endoocular pressure, 20' OS / endoocular pressure, 20' OC: 20 minutes; for endoocular pressure, 40' OS / endoocular pressure, 40' OD: 40 minutes; for endoocular pressure, 10' OD / endoocular pressure, 20' OC / endoocular pressure, 40' OD: right eye (drug-treated, 2 drops of 2% solution)
Description: In vivo experiments were carried out on the compounds of the present invention, and, amongst the others, those experiments whose results are reported in the following Table 2, concerning the decrease in the ocular pressure in rabbit.
For determining such results a transient ocular hypertension model was employed, said hypertension being obtained in rabbit through rapid venous infusion of suitable volumes (20 ml/kg) of 5% glucose solution.
Albino rabbits from the same farm in New Zealand were employed, whose weights were between 2,500 e 3,000 g. Each treatment was carried out on a group of six animals.
The drug was prepared in a phosphate buffer water solution at pH 7.5. The solution was made isotonic with sodium chloride and the possibility of microbial contamination was prevented through the addition of benzalkonium chloride. In case of compounds of low solubility, a dispersing suspension of the finely divided compound in methyl cellulose was prepared. The solution (or the suspension) was instilled into the right eye of each animal in the amount of 2 drops of 2% solution, at an interval of 2 minutes from one another. The left eye was treated with an equal volume of diluent.
The measurements of pressure were performed while animals were in superficial local anaesthesia (0.4% benoxinate), by means of a McKay-Marg electronic pressure gage, at the times -30', 0', 10', 20', 40'.
The following table reports the endoocular pressure measured after 10, 20, and 40 minutes both in the right and in the left eye: the higher the difference in the ocular pressure between the treated eye and the untreated eye, the higher the efficiency of the drug considered.

[3] = stability of the product (hydrolysis), observed on preparation; format: physicochemical; conditions: residue after reaction with liquid ammonia
[4] = in words; cited from earlier work
[5] = in words; cited from earlier work; remark: listed apart in the source

| SMILES | IC50 (carbonic anhydrase) [µM] | solubility [1] [µg/mL] | endoocular pressure, 10' OS [2] | endoocular pressure, 20' OS [2] | endoocular pressure, 40' OS [2] | endoocular pressure, 10' OD [2] | endoocular pressure, 20' OC [2] | endoocular pressure, 40' OD [2] | stability [3] | water solubility [4] | absorption when instilled in the eye [5] |
| --- | --- | --- | --- | --- | --- | --- | --- | --- | --- | --- | --- |
| CC(C)COC(=O)CCC(=O)Nc1nnc(S(N)(=O)=O)s1 [RENDE 034, 5-Isobutylsuccinoylamino-2-sulfonamido-1,3,4-thiadiazole] | 0.37 | 1240 (≈ 3.69 mM) | 25.67 | 21.17 | 17.17 | 21.5 | 19.0 | 16.67 | – | – | – |
| NS(=O)(=O)c1nnc(NC(=O)CCC(=O)O)s1 [RENDE 037, 5-succinoylamino-2-sulfonamido-1,3,4-thiadiazolic acid] | – | 28700 (≈ 102 mM) | 26.0 | 21.67 | 19.0 | 19.33 | 17.17 | 15.67 | – | – | – |
| CCCCCOC(=O)CCC(=O)Nc1nnc(S(N)(=O)=O)s1 [RENDE 032, 5-Pentylsuccinoylamino-2-sulfonamido-1,3,4-thiadiazole] | 0.39 | 470 (≈ 1.34 mM) | 24.5 | 21.33 | 18.83 | 22.67 | 20.0 | 17.83 | – | – | – |
| NCCCCC(=O)Nc1nnc(S(N)(=O)=O)s1 [RENDE 027, 5-(5-Aminovaleroylamino)-2-sulfonamido-1,3,4-thiadiazole] | 0.44 | 208 (≈ 0.745 mM) | 26.17 | 21.5 | 17.33 | 24.0 | 20.83 | 16.83 | – | – | – |
| CCOC(=O)CCC(=O)Nc1nnc(S(N)(=O)=O)s1 [RENDE 029, 5-Ethylsuccinoylamino-2-sulfonamido-1,3,4-thiadiazole] | – | 2760 (≈ 8.95 mM) | 25.67 | 20.67 | 17.67 | 20.33 | 17.33 | 15.67 | – | – | – |
| COC(=O)CCC(=O)N=c1sc(S(N)(=O)=O)nn1C [RENDE 024, 5-Methylsuccinoylamino-4-methyl-2-sulfonamido-1,3,4-thiadiazole] | 0.45 | 2250 (≈ 7.3 mM) | 25.83 | 21.5 | 17.83 | 24.67 | 20.33 | 17.33 | – | – | – |
| NS(=O)(=O)c1nnc(NC(=O)CCC(=O)OCC(F)(F)F)s1 [Rende 039, 5-Trifluoroethylsuccinoylamino-2-sulfonamido-1,3,4-thiadiazole] | – | – | – | – | – | – | – | – | very unstable and becomes very easily hydrolysed | – | – |
| CCCCCOC(=O)CCC(=O)N=c1sc(S(N)(=O)=O)nn1C [RENDE 035, 5-Pentylsuccinoylamino-4-methyl-2-sulfonamido-1,3,4-thiadiazole] | 0.307 | 535 (≈ 1.47 mM) | 25.17 | 22.0 | 18.0 | 24 | 20.67 | 17.83 | – | – | – |
| COC(=O)CCC(=O)Nc1nnc(S(N)(=O)=O)s1 [RENDE 023, 5-methylsuccinoylamino-2-sulfonamido-1,3,4-thiadiazole] | 0.55 | 740 (≈ 2.51 mM) | 25.5 | 20.17 | 16.67 | 25.33 | 19.5 | 16.5 | – | – | – |
| CC(=O)Nc1nnc(S(N)(=O)=O)s1 [ACETAZOLAMIDE, 5-acetamido-2-sulfonamido-1,3,4-thiadiazole] | – | – | – | – | – | – | – | – | – | practically insoluble | poor absorption |

Source: patent US5010204A, “Acetazolamide-related compounds, process for their preparation, and pharmaceutical composition containing the same” (Instituto Chimico Internazionale Dr. Giuseppe Rende S.r.l., priority 1988, dated 1991)
